Experimental data as given in ChEMBL document CHEMBL5653631, “A Potent and Selective ULK1 Inhibitor Suppresses Autophagy and Sensitizes Cancer Cells to Nutrient Stress” (iScience, 2018).

Key:
[1] = target: T1, Mitogen-activated protein kinase kinase kinase kinase 2 (Homo sapiens) (UniProt Q12851); experiment: Inhibition of human recombinant GCK at 40 nM related to control ULK1
T1 sequence (whole entry): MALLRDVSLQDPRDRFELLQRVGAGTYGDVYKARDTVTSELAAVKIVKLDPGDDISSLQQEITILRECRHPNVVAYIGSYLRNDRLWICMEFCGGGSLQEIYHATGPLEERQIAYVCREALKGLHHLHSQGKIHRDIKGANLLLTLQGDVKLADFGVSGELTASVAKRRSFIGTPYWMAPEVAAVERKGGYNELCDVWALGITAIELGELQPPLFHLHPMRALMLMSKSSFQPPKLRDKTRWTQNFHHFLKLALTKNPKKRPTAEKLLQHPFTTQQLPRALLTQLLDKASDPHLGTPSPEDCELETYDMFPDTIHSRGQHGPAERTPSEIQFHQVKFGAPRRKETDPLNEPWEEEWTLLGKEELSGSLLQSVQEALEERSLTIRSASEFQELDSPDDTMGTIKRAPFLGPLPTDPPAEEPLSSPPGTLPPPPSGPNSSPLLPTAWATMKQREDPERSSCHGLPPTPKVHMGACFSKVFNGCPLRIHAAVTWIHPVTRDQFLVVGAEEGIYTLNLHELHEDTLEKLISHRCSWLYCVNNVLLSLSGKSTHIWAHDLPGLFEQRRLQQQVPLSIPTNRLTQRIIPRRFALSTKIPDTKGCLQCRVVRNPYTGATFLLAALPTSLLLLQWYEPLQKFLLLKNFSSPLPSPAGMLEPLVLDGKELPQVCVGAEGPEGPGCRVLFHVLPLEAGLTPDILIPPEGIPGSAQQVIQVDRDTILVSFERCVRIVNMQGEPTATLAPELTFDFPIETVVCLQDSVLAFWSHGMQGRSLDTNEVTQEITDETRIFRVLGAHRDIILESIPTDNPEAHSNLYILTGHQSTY

[2] = target: T2, Protein kinase C epsilon type (Homo sapiens) (UniProt Q02156); experiment: Inhibition of human recombinant PKCe at 40 nM in presence of ATP by radiometric assay relative to control
T2 sequence (whole entry): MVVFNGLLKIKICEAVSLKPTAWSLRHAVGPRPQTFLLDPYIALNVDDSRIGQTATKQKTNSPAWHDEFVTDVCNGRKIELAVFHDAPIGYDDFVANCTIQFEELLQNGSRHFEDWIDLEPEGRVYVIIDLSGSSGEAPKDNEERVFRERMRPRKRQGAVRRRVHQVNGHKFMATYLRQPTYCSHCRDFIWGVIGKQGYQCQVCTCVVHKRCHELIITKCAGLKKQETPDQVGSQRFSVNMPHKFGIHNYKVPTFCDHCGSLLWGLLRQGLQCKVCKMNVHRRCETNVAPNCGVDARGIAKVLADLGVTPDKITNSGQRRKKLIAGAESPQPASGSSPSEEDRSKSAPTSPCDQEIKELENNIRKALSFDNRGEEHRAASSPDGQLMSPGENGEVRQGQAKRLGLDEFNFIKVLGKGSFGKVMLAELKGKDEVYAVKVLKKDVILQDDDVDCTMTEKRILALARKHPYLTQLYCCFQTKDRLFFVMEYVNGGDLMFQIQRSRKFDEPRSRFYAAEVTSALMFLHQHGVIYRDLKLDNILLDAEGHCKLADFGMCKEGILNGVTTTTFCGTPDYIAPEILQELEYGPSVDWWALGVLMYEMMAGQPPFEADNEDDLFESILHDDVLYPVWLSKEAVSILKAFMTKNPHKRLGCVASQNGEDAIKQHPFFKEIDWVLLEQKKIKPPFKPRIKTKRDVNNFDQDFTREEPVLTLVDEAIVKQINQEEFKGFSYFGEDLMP

[3] = target: T3, Serine/threonine-protein kinase TAO1 (Homo sapiens) (UniProt Q7L7X3); experiment: Inhibition of human recombinant TAO1 at 500 nM related to control ULK1
T3 sequence (whole entry): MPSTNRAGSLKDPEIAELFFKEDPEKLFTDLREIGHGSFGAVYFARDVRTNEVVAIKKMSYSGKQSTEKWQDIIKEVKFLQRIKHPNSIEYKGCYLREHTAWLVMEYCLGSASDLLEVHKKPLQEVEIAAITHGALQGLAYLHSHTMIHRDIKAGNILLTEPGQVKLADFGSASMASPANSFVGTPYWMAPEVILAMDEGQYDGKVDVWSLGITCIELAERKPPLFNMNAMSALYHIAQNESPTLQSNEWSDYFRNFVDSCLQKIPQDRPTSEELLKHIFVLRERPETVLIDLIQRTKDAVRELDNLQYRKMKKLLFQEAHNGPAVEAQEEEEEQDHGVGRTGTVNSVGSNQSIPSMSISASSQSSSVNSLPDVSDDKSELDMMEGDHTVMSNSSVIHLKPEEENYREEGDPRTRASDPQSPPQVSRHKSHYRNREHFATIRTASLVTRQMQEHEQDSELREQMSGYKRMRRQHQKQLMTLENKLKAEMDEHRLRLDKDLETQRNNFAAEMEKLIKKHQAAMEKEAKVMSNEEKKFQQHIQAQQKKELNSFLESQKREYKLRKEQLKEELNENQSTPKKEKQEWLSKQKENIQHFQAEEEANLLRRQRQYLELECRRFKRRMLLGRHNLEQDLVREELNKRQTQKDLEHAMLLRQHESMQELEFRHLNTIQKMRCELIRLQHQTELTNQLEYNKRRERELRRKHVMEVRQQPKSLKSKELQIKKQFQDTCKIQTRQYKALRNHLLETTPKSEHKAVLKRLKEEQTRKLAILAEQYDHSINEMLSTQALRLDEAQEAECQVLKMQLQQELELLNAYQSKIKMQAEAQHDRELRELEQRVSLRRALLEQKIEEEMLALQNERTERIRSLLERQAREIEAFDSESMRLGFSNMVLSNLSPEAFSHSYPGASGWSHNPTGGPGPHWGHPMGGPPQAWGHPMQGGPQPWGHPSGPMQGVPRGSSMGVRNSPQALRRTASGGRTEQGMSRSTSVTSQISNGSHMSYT

[4] = target: Proto-oncogene tyrosine-protein kinase receptor Ret (Homo sapiens) (UniProt P07949); experiment: Inhibition of human recombinant RET at 500 nM in presence of ATP by radiometric assay relative to control
Sequence of Proto-oncogene tyrosine-protein kinase receptor Ret (Homo sapiens) (P07949 whole entry): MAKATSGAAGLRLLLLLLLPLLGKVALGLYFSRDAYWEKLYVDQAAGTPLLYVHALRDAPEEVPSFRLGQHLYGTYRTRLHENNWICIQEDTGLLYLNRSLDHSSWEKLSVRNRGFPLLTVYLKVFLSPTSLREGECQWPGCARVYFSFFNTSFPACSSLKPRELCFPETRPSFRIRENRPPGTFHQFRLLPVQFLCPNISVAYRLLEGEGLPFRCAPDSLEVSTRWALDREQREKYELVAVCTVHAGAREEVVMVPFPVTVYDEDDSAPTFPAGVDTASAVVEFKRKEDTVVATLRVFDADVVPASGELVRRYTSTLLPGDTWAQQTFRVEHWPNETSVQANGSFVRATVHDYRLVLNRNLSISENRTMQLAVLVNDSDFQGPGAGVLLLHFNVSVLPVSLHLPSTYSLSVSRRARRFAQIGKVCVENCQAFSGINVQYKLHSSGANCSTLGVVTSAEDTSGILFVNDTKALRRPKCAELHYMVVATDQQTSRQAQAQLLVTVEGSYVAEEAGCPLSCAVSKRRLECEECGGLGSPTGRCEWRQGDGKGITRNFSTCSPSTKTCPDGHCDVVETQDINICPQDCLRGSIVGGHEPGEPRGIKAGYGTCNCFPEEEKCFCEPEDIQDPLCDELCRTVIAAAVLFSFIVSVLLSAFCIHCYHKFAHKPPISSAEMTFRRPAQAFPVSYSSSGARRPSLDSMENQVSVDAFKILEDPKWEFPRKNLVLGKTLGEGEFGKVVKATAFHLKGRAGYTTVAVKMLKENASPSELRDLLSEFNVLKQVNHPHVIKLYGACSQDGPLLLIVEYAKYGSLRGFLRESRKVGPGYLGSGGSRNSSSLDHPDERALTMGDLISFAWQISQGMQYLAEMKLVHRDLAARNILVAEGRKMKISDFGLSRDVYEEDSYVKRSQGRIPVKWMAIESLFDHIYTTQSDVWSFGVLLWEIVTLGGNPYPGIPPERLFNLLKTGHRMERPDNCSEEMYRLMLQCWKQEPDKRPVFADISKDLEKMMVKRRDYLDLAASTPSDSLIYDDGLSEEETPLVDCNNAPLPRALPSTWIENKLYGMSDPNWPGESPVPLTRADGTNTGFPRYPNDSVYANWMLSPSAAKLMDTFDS

| SMILES | fold change (FC) [1] | inhibition [2] | fold change (FC) [3] | inhibition [4] |
| --- | --- | --- | --- | --- |
| O=C(N[C@@H](C1CC1)C(F)(F)F)c1cc(-c2cnn3cc(-c4ccc(F)cc4)cnc23)cs1 | 0 | 0% | – | – |
| CNC(=O)c1ccccc1Oc1nc(Nc2cc(OC)c(OC)c(OC)c2)ncc1Br | – | – | 0.08 | 3% |
